Test results published in publication PMC11187542, “Identification of fragments targeting SMYD3 using highly sensitive kinetic and multiplexed biosensor-based screening” (RSC Medicinal Chemistry, 2024).

Key:
SMYD3 (apo, native) = target: T1, SMYD3 (apo, native) (Homo sapiens, UniProt Q9H7B4); assay: GCI biosensor kinetic screening, apo SMYD3 surface; format: binding; details: control SAH at 25 μM, multiple injection design
T1 construct: Full length recombinant SMYD3 was produced as previously reported; made in house; host or cells: E. coli BL21(DE3), in some cases Rosetta 2
T1 sequence (Q9H7B4 1-428): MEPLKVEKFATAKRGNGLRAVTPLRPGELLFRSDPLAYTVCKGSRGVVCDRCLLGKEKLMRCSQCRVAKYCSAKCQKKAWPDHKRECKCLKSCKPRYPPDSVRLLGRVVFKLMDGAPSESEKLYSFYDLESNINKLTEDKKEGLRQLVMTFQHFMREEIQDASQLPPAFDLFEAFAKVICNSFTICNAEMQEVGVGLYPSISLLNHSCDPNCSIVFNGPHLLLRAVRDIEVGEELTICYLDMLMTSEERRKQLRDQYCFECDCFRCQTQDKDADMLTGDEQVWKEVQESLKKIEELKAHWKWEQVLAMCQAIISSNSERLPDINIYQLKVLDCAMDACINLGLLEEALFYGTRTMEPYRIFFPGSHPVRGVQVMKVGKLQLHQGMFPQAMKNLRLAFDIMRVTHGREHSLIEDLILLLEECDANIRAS
From the text: (§1) A multiplexed screening assay was set up with three different SMYD3 surfaces and a blank reference surface in flow channels 1–4 (FC1–FC4) (Fig. 2a), as described previously.[5] The apo SMYD3 surface detected fragments interacting anywhere on SMYD3, while a SMYD3 surface blocked by active site-specific tight-binding inhibitor EPZ031686 detected compounds binding elsewhere. The denatured surface served as a reference, detecting fragments binding to unfolded proteins, also potentially present to a significant degree in the other two surfaces.
After preparing the sensor surface and immobilising SMYD3, the functionality of the surface was assessed via analysis of interactions with the co-factor product S-adenosyl-homocysteine (SAH). It was used as a control in all experiments, confirming that sensor surfaces were intact. This was done using the novel multiple injection-based experimental design (Fig. 1) at 25 μM, i.e. in a weak binder mode (Fig. 2b).
(§2) The library was screened using the approach described in Fig. 1, i.e. injection of fragments at 250 μM for increasing durations of time in a single cycle, using a flow rate of 100 μL min^−1, data acquisition set to 40 Hz and with an association time of 5 s and dissociation of 20 s. Each fragment was addressed to all four channels and interactions with the native and blocked surfaces compared. The experimental conditions were chosen to ensure that the assay could reliably characterize the fast and transient interactions expected from typical fragments.
(§3) The kinetic screening of 1056 compounds was successfully completed in 72 hours. […] Hits were identified with full kinetic information using dissociation phases.
(§4) All interaction kinetic experiments were conducted with a GCI–flow-based biosensor (WAVEdelta, Creoptix AG/Malvern Panalytical) and PCH WAVEchip (Creoptix AG/Malvern Panalytical) sensor chips. The sensor chips were conditioned using injections of borate buffer (10 mM sodium tetraborate pH 8.5, 1 M NaCl). The running buffer composition, if not otherwise stated, was TBS buffer (50 mM Tris, 150 mM NaCl, 0.5 mM TCEP, 0.05% Tween 20, 1% DMSO, pH 8). SMYD3 was diluted to the desired concentration in 10 mM bis-Tris (pH 7.0) and amine coupled to the sensor surface of the PCH sensor chip. The sensor chip was functionalized at 25 °C by immobilising SMYD3 with EDC and NHS (Xantec) using an injection time of 420 s and a flow rate of 10 μL min^−1. The immobilisation levels ranged from 5000 pg mm^−2 to 18 500 pg mm^−2 surface mass to enable analysis of fragments spanning a broad range of affinities. After immobilization, the surface was deactivated with a running buffer containing 50 mM Tris for 420 s. The GCI data referencing and analysis were performed using WAVEcontrol V4.5 (Creoptix AG).
(§5) Kinetic measurements with controls and fragments were performed at 15 °C. Analysis of controls and follow up of hits was done using the multi cycle kinetic (MCK) injection of a concentration series for the same time, with a two-fold serial dilution starting at 250 μM for each compound. Solvent correction was performed ranging from 0.5–1.8% DMSO. Blank samples of the running buffer, 1× TBS (50 mM Tris, 150 mM NaCl, 0.5 mM TCEP, 0.05% Tween 20, 1% DMSO, pH 8), were injected during the measurements every fifth cycle. The experimental design illustrated in Fig. 1 was used for the screening against all four surfaces. The sensorgrams were adjusted to account for solvent correction and blank subtraction. Kinetic fitting was performed with the Direct Kinetics engine of WAVEcontrol software V4.5 (Creoptix AG) with a suitable fitting model.

SMYD3 [1] = target: T2, SMYD3 (Homo sapiens, UniProt Q9H7B4); parameters: method as in PMID 31389685; details: previously obtained, SPR-based biosensor assay, cited from earlier work
T2 construct: Full length recombinant SMYD3 was produced as previously reported; made in house; host or cells: E. coli BL21(DE3), in some cases Rosetta 2
T2 sequence (Q9H7B4 1-428): T1 sequence (Q9H7B4 1-428)

[2] = target: T3, SMYD3 in complex with active site-specific tight-binding inhibitor EPZ031686 (Homo sapiens, UniProt Q9H7B4); assay: GCI biosensor kinetic screening, active site blocked SMYD3 surface
T3 construct: Full length recombinant SMYD3 was produced as previously reported; made in house; host or cells: E. coli BL21(DE3), in some cases Rosetta 2
T3 sequence (Q9H7B4 1-428): T1 sequence (Q9H7B4 1-428)
From the text: as §1, §2, §3, §4, §5

SMYD3 [3] = target: T2, SMYD3; assay: GCI biosensor multi cycle kinetic confirmation of hits; format: binding; details: two-fold serial dilution starting at 250 μM, 15 °C, global fit 1:1 model
Experimental: Selected screening hits were also re-tested by conventional multi cycle kinetic analysis in order to confirm the interactions (some compounds were no longer available). Two variants of the GCI biosensor assay were set up, using different immobilisation levels, to allow the confirmation of hits over a broad range of affinities. […] The kinetics varied for the selected hits (ESI, ^† Fig. S2). All hits were not confirmed (ESI, ^† Fig. S1b).
as §4, §5
FL06268 Superstoichiometric and
Figure 1. Examples of sensorgrams from multicycle kinetic experiments with initial fragment hits and SMYD3. A)
Fragments for which crystal structures of the complex with SMYD3 were obtained. A global fit of the sensorgrams
crystal structures were not obtained. […]

SMYD3 [4] = target: T2, SMYD3; assay: X-ray crystallography of SMYD3-fragment complexes (co-crystallization and soaking); parameters: key to XRC: success or failure of crystallization in complex with SMYD3: The success (+) or failure (−) of crystallization in complex with SMYD3; The success (+) or failure (−) of crystallization in complex with SMYD3; details: 5 mM fragment co-crystallization or soaking
From the text: To identify binding sites and binding modes, the fragment hits (Table 1) were used in both co-crystallization and soaking experiments to obtain SMYD3-fragment co-crystals for X-ray crystallographic analyses. Diffraction data of 1.6–1.9 Å maximum resolution were obtained for four fragments (Fig. 5). For data collection and refinement statistics, see ESI, ^† Table S1.
Four new sites were thus identified.
Polder (F0–Fc) maps (Fig. 5, right) were generated to establish whether the observed electron density features were more likely to represent background noise or to belong to bound fragments. These omit maps are generated upon exclusion of the ligand and surrounding solvent from the model, which aids in visualizing weak densities. […] For fragments FL01507, FL08580 and FL08619, a comparison of the maps obtained after refinement with a bound fragment with maps obtained upon their replacement with either glycerol or acetate, which were present in the crystallization or cryo-protectant solutions, respectively, was required.
8 mg mL^−1 of SMYD3 in storage buffer (TBS buffer containing 2 mM DTT) was pre-incubated for 4–8 hours with 5 mM of a respective fragment hit compound and 10% (v/v) DMSO. Subsequently, 1 μL of this solution was mixed with an equal volume of reservoir solution (100 mM Tris, 100 mM magnesium acetate, 15–17% PEG3350, pH 8.25–8.75) to create the drops for co-crystallization by hanging drop vapour diffusion performed at 20 °C. Needle-like co-crystals nucleated within 12 h of equilibration against the reservoir. In addition, crystals of SMYD3 obtained in ligand-free crystallization setups were soaked with fragment solution prior to freezing. All crystals were cryo-protected via brief immersion in reservoir solution supplemented with 10% (v/v) glycerol.
Diffraction data were collected at beamline ID23-1 of the European Synchrotron Radiation Facility (ESRF, Grenoble, France). Data were indexed, auto-processed, scaled and merged on-site using the implemented data processing routines and software. Fragment-associated electron density features were identified upon data analysis with the Pipedream system (version 1.4.0, Global Phasing Ltd, Cambridge, United Kingdom), which includes data processing with autoPROC,[14] molecular replacement with Phaser,[15] structure refinement with BUSTER version 2.10.4 (Global Phasing Ltd, Cambridge, United Kingdom), automated ligand fitting with Rhofit (Global Phasing Ltd, Cambridge, United Kingdom) and BUSTER post-refinement.[16] Refinement was done with Phenix,[17] and model building with Coot.[18] (F0–Fc) difference density maps for models, from which ligand atoms and surrounding water molecules were removed, were generated using Phenix.

Structure (SMILES) | ka (SMYD3 (apo, native)) | kd (SMYD3 (apo, native)) | ka (SMYD3 [1]) | kd (SMYD3 [1]) | Kd (SMYD3 [1]; read-out: derived KD) | LE (ligand efficiency) ([2]; LE = −RT ln(KD)/n, blocked SMYD3 surface) | Kd ([2]; initial kinetic screening, fragment 250 μM, 15 °C, SMYD3 blocked by EPZ031686) | kd ([2]; initial kinetic screening, fragment 250 μM, 15 °C, SMYD3 blocked by EPZ031686, 1:1 model) | kon at 250 µM ([2]; initial kinetic screening, fragment 250 μM, 15 °C, SMYD3 blocked by EPZ031686, 1:1 model, read-out: ka) | Outcome of multicycle kinetic experiment (sensorgram assessment) (SMYD3 [3]) | XRC: success or failure of crystallization in complex with SMYD3 (SMYD3 [4])
Nc1ncnc2c1ncn2[C@@H]1O[C@H](CSCC[C@H](N)C(=O)O)[C@@H](O)[C@H]1O [SAH, S-adenosyl-homocysteine] | 304000 to 3.52e+06 M⁻¹ s⁻¹ | 0.748 to 4.92 s⁻¹ | (2.7 ± 0.1) × 10^6 M^-1 s^-1 | 1.6 ± 0.9 s⁻¹ | 0.611 ± 0.002 µM | – | – | – | – | – | –
O=C(O)C(=O)c1ccccc1 [FL08619] | – | – | – | – | – | 0.55 (kcal^-1 mol^-1)/HA | 38 µM | 1.06 s⁻¹ | 27300 M⁻¹ s⁻¹ | Far from saturation | (+)
